Experimental data: article PMC12535076, “Neurotherapeutic effects of Vutiglabridin as a Paraoxonase-2 modulator in preclinical models of Parkinson’s disease” (Molecular Neurodegeneration, 2025)

How the values were obtained:
[1] = QWBA and plasma radioactivity after oral 14C-Vuti in rats; assay type: in vivo, Sprague-Dawley rat; settings: abstract statement; species not stated there
Protocol: Male 8-week-old Sprague Dawley rats (n = 5, 16 h fasted; Charles River Laboratories Japan Inc., Yokohama, Japan) were orally administered 10 mg/kg of ^14C-Vuti (equivalent to radioactivity of 3.7 MBq/kg, Glaceum Inc., Suwon, Korea). After 2, 6, and 24 h, each rat was euthanized by CO2 inhalation. The nasal cavity and anus were filled with 4% w/v sodium carboxymethyl cellulose, and the carcass was frozen in a dry ice-acetone mixture. […] The radioactivity was measured by the bio-imaging analyzer system (FUJIX-BAS2500, Fujifilm, Tokyo, Japan; resolution µm, gradation 256, sensitivity 10000, latitude 4), in which the radioactivity in organs was converted to the photo-stimulated luminescence per unit area (PSL/mm^2) minus the background radioactivity of the plastic standard samples. Tissue radioactivity in whole-body auto-radiograms was quantified by densitometry using an MCID image analysis software (v. 7.0, MCID Image Analysis Software Solutions for Life Sciences, Cambridge, UK). Radioactivity concentrations were expressed as ng equivalents of ^14C-Vuti per gram tissue (ng eq/g tissue). […]
For measuring the radioactive concentration in the plasma, blood (250 uL) was collected from the tail vein of the animals (n = 3) of the exact same conditions as the animals used for QWBA assay. […] Then the tissue to blood ratio was calculated. […]

[2] = system: primary cultured astrocytes; experiment: Intracellular H2O2 (oROS-G sensor) in 6-OHDA-treated astrocytes; assay type: cell-based
Protocol: Intracellular H2O2 levels in astrocytes were measured using a genetically encoded oROS-G plasmid, which is highly sensitive and specific for H2O2 with rapid on-and-off kinetics. The plasmid was generously provided by Dr. Andre Berndt and was cloned under the GFAP104 promoter. Transfection into primary cultured hippocampal astrocytes was carried out using the NeoNTM transfection system (Invitrogen). Astrocytes were seeded into 96-well black plates (ibidi, USA) and treated with 6-OHDA (10 µM) in the presence of 1, 10, and 30 µM of Vuti. Fluorescence changes were monitored using a Nikon A1 confocal microscope over a period of 21 h for live cell imaging. The fluorescence intensity for each region of interest (ROI) was analyzed using Nikon software, and the data were normalized to control values for the IC50. The IC50 value for Vuti was determined using GraphPad Prism software.

MAO-B = molecular target: T1, MAO-B (Homo sapiens, UniProt P27338); experiment: HRP/Amplex red based MAO-B enzyme activity assay; assay type: biochemical; settings: read-out: IC50, MAO-B assay, HRP/AR method
T1 sequence (P27338 1-520): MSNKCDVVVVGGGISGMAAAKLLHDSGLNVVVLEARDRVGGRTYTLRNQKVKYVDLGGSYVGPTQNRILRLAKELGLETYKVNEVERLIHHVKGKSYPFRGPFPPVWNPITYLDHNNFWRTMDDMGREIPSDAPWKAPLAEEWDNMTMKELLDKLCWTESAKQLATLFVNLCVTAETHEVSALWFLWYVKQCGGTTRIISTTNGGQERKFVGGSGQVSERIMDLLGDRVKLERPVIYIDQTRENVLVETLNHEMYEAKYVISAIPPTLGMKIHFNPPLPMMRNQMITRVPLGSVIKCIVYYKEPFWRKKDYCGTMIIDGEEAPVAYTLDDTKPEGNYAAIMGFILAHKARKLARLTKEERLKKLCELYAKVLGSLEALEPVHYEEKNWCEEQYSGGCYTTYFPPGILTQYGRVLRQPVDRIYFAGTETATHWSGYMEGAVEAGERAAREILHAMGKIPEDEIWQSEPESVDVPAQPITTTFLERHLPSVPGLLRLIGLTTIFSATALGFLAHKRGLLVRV
Protocol: (§1) MAO-A or MAO-B enzyme solutions were prepared by diluting 10 µL of a 2.5 mg/mL MAO-A or MAO-B stock into 10 mL of 50 mM sodium phosphate buffer (pH 7.4). A substrate assay mixture was then prepared by combining benzylamine (for MAO-B) or tyramine (for MAO-A) from a 100 mM stock (200 µL in 10 mL phosphate buffer, final concentration 1 mM) with 100 µL of a 20 mM AR reagent stock (final concentration 0.1 mM) and 100 µL of a 200 U/mL HRP stock (final concentration 1 U/mL) in 10 mL phosphate buffer. […] Next, 50 µL of the substrate assay mixture was added, and the reaction was carried out at 37 °C for 60 min. The production of resorufin was quantified by fluorescence measurement (excitation at 540 nm and emission at 580 nm).

MAO-A = molecular target: T2, MAO-A (Homo sapiens, UniProt P21397); experiment: HRP/Amplex red based MAO-A enzyme activity assay; assay type: biochemical; settings: read-out: IC50, MAO-A assay, HRP/AR method
T2 sequence (P21397 1-527): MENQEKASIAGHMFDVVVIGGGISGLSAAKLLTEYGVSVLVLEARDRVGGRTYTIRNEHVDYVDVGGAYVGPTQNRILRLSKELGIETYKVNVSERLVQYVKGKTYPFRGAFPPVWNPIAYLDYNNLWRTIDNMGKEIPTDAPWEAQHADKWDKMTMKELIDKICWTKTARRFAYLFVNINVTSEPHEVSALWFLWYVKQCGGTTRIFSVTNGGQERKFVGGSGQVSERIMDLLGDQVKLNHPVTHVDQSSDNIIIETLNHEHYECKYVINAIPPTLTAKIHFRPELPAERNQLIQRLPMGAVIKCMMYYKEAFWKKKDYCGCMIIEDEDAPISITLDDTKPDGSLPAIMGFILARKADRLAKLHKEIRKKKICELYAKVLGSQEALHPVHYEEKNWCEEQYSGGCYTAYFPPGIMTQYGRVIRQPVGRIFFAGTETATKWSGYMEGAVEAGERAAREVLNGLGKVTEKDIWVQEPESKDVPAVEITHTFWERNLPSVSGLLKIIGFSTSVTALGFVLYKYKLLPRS
Protocol: as §1

With CCOc1ccc(C2COc3c(ccc4c3CCC(C)(C)O4)C2)c(O)c1 (centres unmarked) [Vuti, Vutiglabridin] the “duration of presence in the brain” value [1] was “over 24 h”, the “ROS levels in 6-OHDA-treated astrocytes” value ([2]; 30 µM Vuti) was “significantly reduced ROS levels” and the IC50 ([2]; Astrocyte, 6-OHDA 10 µM treated primary cultured astrocytes, Vuti 1, 10, 30 µM, read-out: normalized IC50 (ROS, oROS-G sensor imaging)) was 21 µM. It also gave an IC50 (MAO-B) of 425 µM and an IC50 (MAO-A) of 288 µM.
